Assay results as given in US6525001B1, “Substituted pyrimidine and pyridine herbicides” (Mid-American Commercialization Corporation, priority 1997, dated 2003).

Assays:
Test in all cases: Test B pre-/postemergence
Format in all cases: in vivo
Parameters in all cases: key: 0 is no effect; 10 is complete control
[1] = system: soybean (Glycine max)
Outline: (§1)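 Seeds were planted and sprayed preemergence, while plants at 2 to 18 cm (1- to 4-leaf stage) were sprayed postemergence at the same time, with test chemical in a non-phytotoxic solvent mixture containing surfactant. After twelve to sixteen days in a greenhouse, injury was rated visually against untreated controls on a 0–10 scale.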

[2] = system: pigweed (Amaranthus retroflexus)
Outline: as §1

[3] = system: wild oat (Avena fatua)
Outline: as §1

[4] = system: sugar beet (Beta vulgaris)
Outline: as §1

[5] = system: corn (Zea mays)
Outline: as §1

[6] = system: momingglory (Ipomoea hederacea)
Outline: as §1

[7] = system: purple nutsedge (Cyperus rotundus)
Outline: as §1

[8] = system: cocklebur (Xanthium strumarium)
Outline: as §1

[9] = system: wheat (Triticum aestivum)
Outline: as §1

[10] = system: blackgrass (Alopecurus myosuroides)
Outline: as §1

[11] = system: crabgrass (Digitaria sanguinalis)
Outline: as §1

[12] = system: velvetleaf (Abutilon theophrasti)
Outline: as §1

[13] = system: giant foxtail (Setaria faberii)
Outline: as §1

Structure (SMILES): Cc1cnc(-n2ccc(C(F)(F)F)n2)nc1Cc1cccc(C(F)(F)F)c1 [Example 2, 5-methyl-4-[[3-(trifluoromethyl)phenyl]methyl]-2-[3-(trifluoromethyl)-1H-pyrazol-1-yl]pyrimidine]
- Plant response rating, Soybean ([1]; Rate 62 g/ha, Postemergence): 6
- Soybean plant response rating ([1]; Rate 62 g/ha, Preemergence): 0
- Plant response rating, Soybean ([1]; Rate 125 g/ha, Postemergence): 7
- Soybean plant response rating ([1]; Rate 125 g/ha, Preemergence): 1
- Plant response rating, Soybean ([1]; Rate 250 g/ha, Postemergence): 8
- Plant response rating, Soybean ([1]; Rate 250 g/ha, Preemergence): 2
- Plant response rating, Soybean ([1]; Rate 500 g/ha, Postemergence): 8
- Plant response rating, Soybean ([1]; Rate 500 g/ha, Preemergence): 5
- Plant response rating, Redroot pigweed ([2]; Rate 62 g/ha, Postemergence): 7
- Redroot pigweed plant response rating ([2]; Rate 62 g/ha, Preemergence): 10
- Plant response rating, Redroot pigweed ([2]; Rate 125 g/ha, Postemergence): 9
- Redroot pigweed plant response rating ([2]; Rate 125 g/ha, Preemergence): 10
- Plant response rating, Redroot pigweed ([2]; Rate 250 g/ha, Postemergence): 9
- Plant response rating, Redroot pigweed ([2]; Rate 250 g/ha, Preemergence): 10
- Plant response rating, Redroot pigweed ([2]; Rate 500 g/ha, Postemergence): 9
- Plant response rating, Redroot pigweed ([2]; Rate 500 g/ha, Preemergence): 10
- Plant response rating, Wild oats ([3]; Rate 62 g/ha, Postemergence): 3
- Wild oats plant response rating ([3]; Rate 62 g/ha, Preemergence): 6
- Plant response rating, Wild oats ([3]; Rate 125 g/ha, Postemergence): 3
- Wild oats plant response rating ([3]; Rate 125 g/ha, Preemergence): 9
- Plant response rating, Wild oats ([3]; Rate 250 g/ha, Postemergence): 6
- Plant response rating, Wild oats ([3]; Rate 250 g/ha, Preemergence): 9
- Plant response rating, Wild oats ([3]; Rate 500 g/ha, Postemergence): 7
- Plant response rating, Wild oats ([3]; Rate 500 g/ha, Preemergence): 10
- Plant response rating, Sugarbeets ([4]; Rate 62 g/ha, Postemergence): 9
- Sugarbeets plant response rating ([4]; Rate 62 g/ha, Preemergence): 10
- Plant response rating, Sugarbeets ([4]; Rate 125 g/ha, Postemergence): 9
- Sugarbeets plant response rating ([4]; Rate 125 g/ha, Preemergence): 10
- Plant response rating, Sugarbeets ([4]; Rate 250 g/ha, Postemergence): 9
- Plant response rating, Sugarbeets ([4]; Rate 250 g/ha, Preemergence): 10
- Plant response rating, Sugarbeets ([4]; Rate 500 g/ha, Postemergence): 9
- Plant response rating, Sugarbeets ([4]; Rate 500 g/ha, Preemergence): 10
- Plant response rating, Corn ([5]; Rate 62 g/ha, Postemergence): 2
- Corn plant response rating ([5]; Rate 62 g/ha, Preemergence): 0
- Plant response rating, Corn ([5]; Rate 125 g/ha, Postemergence): 4
- Corn plant response rating ([5]; Rate 125 g/ha, Preemergence): 1
- Plant response rating, Corn ([5]; Rate 250 g/ha, Postemergence): 6
- Plant response rating, Corn ([5]; Rate 250 g/ha, Preemergence): 1
- Plant response rating, Corn ([5]; Rate 500 g/ha, Postemergence): 7
- Plant response rating, Corn ([5]; Rate 500 g/ha, Preemergence): 2
- Plant response rating, Morningglory ([6]; Rate 62 g/ha, Postemergence): 8
- Morningglory plant response rating ([6]; Rate 62 g/ha, Preemergence): 7
- Plant response rating, Morningglory ([6]; Rate 125 g/ha, Postemergence): 9
- Morningglory plant response rating ([6]; Rate 125 g/ha, Preemergence): 9
- Plant response rating, Morningglory ([6]; Rate 250 g/ha, Postemergence): 9
- Plant response rating, Morningglory ([6]; Rate 250 g/ha, Preemergence): 10
- Plant response rating, Morningglory ([6]; Rate 500 g/ha, Postemergence): 9
- Plant response rating, Morningglory ([6]; Rate 500 g/ha, Preemergence): 10
- Plant response rating, Nutsedge ([7]; Rate 62 g/ha, Postemergence): 0
- Nutsedge plant response rating ([7]; Rate 62 g/ha, Preemergence): 0
- Plant response rating, Nutsedge ([7]; Rate 125 g/ha, Postemergence): 0
- Nutsedge plant response rating ([7]; Rate 125 g/ha, Preemergence): 0
- Plant response rating, Nutsedge ([7]; Rate 250 g/ha, Preemergence): 0
- Plant response rating, Nutsedge ([7]; Rate 500 g/ha, Postemergence): 2
- Plant response rating, Nutsedge ([7]; Rate 500 g/ha, Preemergence): 0
- Plant response rating, Cocklebur ([8]; Rate 62 g/ha, Postemergence): 8
- Cocklebur plant response rating ([8]; Rate 62 g/ha, Preemergence): 0
- Plant response rating, Cocklebur ([8]; Rate 125 g/ha, Postemergence): 8
- Cocklebur plant response rating ([8]; Rate 125 g/ha, Preemergence): 1
- Plant response rating, Cocklebur ([8]; Rate 250 g/ha, Postemergence): 8
- Plant response rating, Cocklebur ([8]; Rate 250 g/ha, Preemergence): 1
- Plant response rating, Cocklebur ([8]; Rate 500 g/ha, Postemergence): 9
- Plant response rating, Cocklebur ([8]; Rate 500 g/ha, Preemergence): 3
- Plant response rating, Wheat ([9]; Rate 62 g/ha, Postemergence): 2
- Wheat plant response rating ([9]; Rate 62 g/ha, Preemergence): 1
- Plant response rating, Wheat ([9]; Rate 125 g/ha, Postemergence): 2
- Wheat plant response rating ([9]; Rate 125 g/ha, Preemergence): 2
- Plant response rating, Wheat ([9]; Rate 250 g/ha, Postemergence): 3
- Plant response rating, Wheat ([9]; Rate 250 g/ha, Preemergence): 3
- Plant response rating, Wheat ([9]; Rate 500 g/ha, Postemergence): 5
- Plant response rating, Wheat ([9]; Rate 500 g/ha, Preemergence): 3
- Plant response rating, Blackgrass ([10]; Rate 62 g/ha, Postemergence): 3
- Blackgrass plant response rating ([10]; Rate 62 g/ha, Preemergence): 3
- Plant response rating, Blackgrass ([10]; Rate 125 g/ha, Postemergence): 6
- Blackgrass plant response rating ([10]; Rate 125 g/ha, Preemergence): 7
- Plant response rating, Blackgrass ([10]; Rate 250 g/ha, Postemergence): 7
- Plant response rating, Blackgrass ([10]; Rate 250 g/ha, Preemergence): 10
- Plant response rating, Blackgrass ([10]; Rate 500 g/ha, Postemergence): 9
- Plant response rating, Blackgrass ([10]; Rate 500 g/ha, Preemergence): 10
- Plant response rating, Crabgrass ([11]; Rate 62 g/ha, Postemergence): 8
- Crabgrass plant response rating ([11]; Rate 62 g/ha, Preemergence): 9
- Plant response rating, Crabgrass ([11]; Rate 125 g/ha, Postemergence): 9
- Crabgrass plant response rating ([11]; Rate 125 g/ha, Preemergence): 10
- Plant response rating, Crabgrass ([11]; Rate 250 g/ha, Postemergence): 9
- Plant response rating, Crabgrass ([11]; Rate 250 g/ha, Preemergence): 10
- Plant response rating, Crabgrass ([11]; Rate 500 g/ha, Postemergence): 10
- Plant response rating, Crabgrass ([11]; Rate 500 g/ha, Preemergence): 10
- Plant response rating, Velvetleaf ([12]; Rate 62 g/ha, Postemergence): 8
- Velvetleaf plant response rating ([12]; Rate 62 g/ha, Preemergence): 6
- Plant response rating, Velvetleaf ([12]; Rate 125 g/ha, Postemergence): 9
- Velvetleaf plant response rating ([12]; Rate 125 g/ha, Preemergence): 6
- Plant response rating, Velvetleaf ([12]; Rate 250 g/ha, Postemergence): 9
- Plant response rating, Velvetleaf ([12]; Rate 250 g/ha, Preemergence): 8
- Plant response rating, Velvetleaf ([12]; Rate 500 g/ha, Postemergence): 9
- Plant response rating, Velvetleaf ([12]; Rate 500 g/ha, Preemergence): 10
- Plant response rating, Giant foxtail ([13]; Rate 62 g/ha, Postemergence): 7
- Giant foxtail plant response rating ([13]; Rate 62 g/ha, Preemergence): 10
- Plant response rating, Giant foxtail ([13]; Rate 125 g/ha, Postemergence): 9
- Giant foxtail plant response rating ([13]; Rate 125 g/ha, Preemergence): 10
- Plant response rating, Giant foxtail ([13]; Rate 250 g/ha, Postemergence): 9
- Plant response rating, Giant foxtail ([13]; Rate 250 g/ha, Preemergence): 10
- Plant response rating, Giant foxtail ([13]; Rate 500 g/ha, Postemergence): 10
- Plant response rating, Giant foxtail ([13]; Rate 500 g/ha, Preemergence): 10
